{
  "source": "ChEMBL document CHEMBL1134873",
  "about": "“Synthesis and antiparasitic activity of 1H-benzimidazole derivatives” (Bioorg Med Chem Lett, 2002)",
  "key": {"Trichinella spiralis [1]": {"system": "Trichinella spiralis", "assay": "Percentage viability reduction of Trichinella spiralis muscle larvae after 3 days of incubation; No reduction observed", "type": "functional, organism-based"}, "Entamoeba histolytica": {"system": "Entamoeba histolytica", "assay": "The compound was tested in vitro against the protozoa Entamoeba histolytica, for the inhibition of tubulin polymerization in rat brain", "type": "functional"}, "Giardia intestinalis": {"system": "Giardia intestinalis", "assay": "The compound was tested in vitro against the protozoa Giardia lamblia, for the inhibition of tubulin polymerization in rat brain", "type": "functional", "settings": "Giardia duodenalis"}, "Trichinella spiralis [2]": {"system": "Trichinella spiralis", "assay": "Percentage viability reduction of Trichinella spiralis muscle larvae after 3 days of incubation", "type": "functional", "design": "concentration or dose not given beside the values"}},
  "data": [
    {"smiles": "Cc1nc2ccccc2[nH]1", "values": [
      {"measurement": "Viability", "setting": "Trichinella spiralis [1]", "result": "No reduction observed"},
      {"measurement": "IC50", "setting": "Entamoeba histolytica", "result": 7, "unit": "nM"},
      {"measurement": "IC50", "setting": "Giardia intestinalis", "result": 317, "unit": "nM"}
    ]},
    {"smiles": "CSc1nc2cc(Cl)ccc2[nH]1", "values": [
      {"measurement": "IC50", "setting": "Entamoeba histolytica", "result": 192, "unit": "nM"},
      {"measurement": "IC50", "setting": "Giardia intestinalis", "result": 5, "unit": "nM"},
      {"measurement": "Viability", "setting": "Trichinella spiralis [2]", "result": 15, "unit": "%"}
    ]},
    {"smiles": "Sc1nc2cc(Cl)ccc2[nH]1", "values": [
      {"measurement": "IC50", "setting": "Entamoeba histolytica", "result": 5, "unit": "nM"},
      {"measurement": "IC50", "setting": "Giardia intestinalis", "result": 81, "unit": "nM"},
      {"measurement": "Viability", "setting": "Trichinella spiralis [2]", "result": 13, "unit": "%"}
    ]},
    {"smiles": "CSc1nc2ccccc2[nH]1", "values": [
      {"measurement": "Viability", "setting": "Trichinella spiralis [1]", "result": "No reduction observed"},
      {"measurement": "IC50", "setting": "Entamoeba histolytica", "result": 393, "unit": "nM"},
      {"measurement": "IC50", "setting": "Giardia intestinalis", "result": 45, "unit": "nM"}
    ]},
    {"smiles": "Sc1nc2ccccc2[nH]1", "note": "[2-MERCAPTOBENZIMIDAZOLE]", "values": [
      {"measurement": "IC50", "setting": "Entamoeba histolytica", "result": 133, "unit": "nM"},
      {"measurement": "IC50", "setting": "Giardia intestinalis", "result": 40, "unit": "nM"},
      {"measurement": "Viability", "setting": "Trichinella spiralis [2]", "result": 11, "unit": "%"}
    ]},
    {"smiles": "Sc1nc2cc(Cl)c(Cl)cc2[nH]1", "values": [
      {"measurement": "IC50", "setting": "Entamoeba histolytica", "result": 55, "unit": "nM"},
      {"measurement": "IC50", "setting": "Giardia intestinalis", "result": 78, "unit": "nM"},
      {"measurement": "Viability", "setting": "Trichinella spiralis [2]", "result": 23, "unit": "%"}
    ]},
    {"smiles": "Cc1nc2cc(Cl)c(Cl)cc2[nH]1", "values": [
      {"measurement": "IC50", "setting": "Entamoeba histolytica", "result": 25, "unit": "nM"},
      {"measurement": "IC50", "setting": "Giardia intestinalis", "result": 65, "unit": "nM"},
      {"measurement": "Viability", "setting": "Trichinella spiralis [2]", "result": 8, "unit": "%"}
    ]},
    {"smiles": "CCCSc1ccc2[nH]c(NC(=O)OC)nc2c1", "note": "[ALBENDAZOLE]", "values": [
      {"measurement": "Viability", "setting": "Trichinella spiralis [2]", "result": 34, "unit": "%"}
    ]},
    {"smiles": "COC(=O)Nc1nc2cc(Cl)c(Cl)cc2[nH]1", "values": [
      {"measurement": "IC50", "setting": "Entamoeba histolytica", "result": 46, "unit": "nM"},
      {"measurement": "IC50", "setting": "Giardia intestinalis", "result": 127, "unit": "nM"},
      {"measurement": "Viability", "setting": "Trichinella spiralis [2]", "result": 14, "unit": "%"}
    ]},
    {"smiles": "Clc1ccc2[nH]cnc2c1", "values": [
      {"measurement": "IC50", "setting": "Entamoeba histolytica", "result": 39, "unit": "nM"},
      {"measurement": "IC50", "setting": "Giardia intestinalis", "result": 282, "unit": "nM"},
      {"measurement": "Viability", "setting": "Trichinella spiralis [2]", "result": 27, "unit": "%"}
    ]},
    {"smiles": "COC(=O)Nc1nc2ccccc2[nH]1", "note": "[CARBENDAZIM]", "values": [
      {"measurement": "Viability", "setting": "Trichinella spiralis [1]", "result": "No reduction observed"},
      {"measurement": "IC50", "setting": "Entamoeba histolytica", "result": 204, "unit": "nM"},
      {"measurement": "IC50", "setting": "Giardia intestinalis", "result": 57, "unit": "nM"}
    ]},
    {"smiles": "Clc1cc2nc[nH]c2cc1Cl", "values": [
      {"measurement": "IC50", "setting": "Entamoeba histolytica", "result": 96, "unit": "nM"},
      {"measurement": "IC50", "setting": "Giardia intestinalis", "result": 358, "unit": "nM"},
      {"measurement": "Viability", "setting": "Trichinella spiralis [2]", "result": 18, "unit": "%"}
    ]},
    {"smiles": "Cc1nc2cc(Cl)ccc2[nH]1", "values": [
      {"measurement": "IC50", "setting": "Entamoeba histolytica", "result": 84, "unit": "nM"},
      {"measurement": "IC50", "setting": "Giardia intestinalis", "result": 156, "unit": "nM"},
      {"measurement": "Viability", "setting": "Trichinella spiralis [2]", "result": 14, "unit": "%"}
    ]},
    {"smiles": "COC(=O)Nc1nc2cc(Cl)ccc2[nH]1", "values": [
      {"measurement": "IC50", "setting": "Entamoeba histolytica", "result": 350, "unit": "nM"},
      {"measurement": "IC50", "setting": "Giardia intestinalis", "result": 66, "unit": "nM"},
      {"measurement": "Viability", "setting": "Trichinella spiralis [2]", "result": 19, "unit": "%"}
    ]},
    {"smiles": "CSc1nc2cc(Cl)c(Cl)cc2[nH]1", "values": [
      {"measurement": "IC50", "setting": "Entamoeba histolytica", "result": 356, "unit": "nM"},
      {"measurement": "IC50", "setting": "Giardia intestinalis", "result": 227, "unit": "nM"},
      {"measurement": "Viability", "setting": "Trichinella spiralis [2]", "result": 17, "unit": "%"}
    ]},
    {"smiles": "Nc1nc2ccccc2[nH]1", "values": [
      {"measurement": "IC50", "setting": "Entamoeba histolytica", "result": 114, "unit": "nM"},
      {"measurement": "IC50", "setting": "Giardia intestinalis", "result": 1900, "unit": "nM"},
      {"measurement": "Viability", "setting": "Trichinella spiralis [2]", "result": 9, "unit": "%"}
    ]},
    {"smiles": "c1ccc2[nH]cnc2c1", "note": "[BENZIMIDAZOLE]", "values": [
      {"measurement": "Viability", "setting": "Trichinella spiralis [1]", "result": "No reduction observed"},
      {"measurement": "IC50", "setting": "Entamoeba histolytica", "result": 42, "unit": "nM"},
      {"measurement": "IC50", "setting": "Giardia intestinalis", "result": 8, "unit": "nM"}
    ]},
    {"smiles": "Nc1nc2cc(Cl)c(Cl)cc2[nH]1", "values": [
      {"measurement": "IC50", "setting": "Entamoeba histolytica", "result": 59, "unit": "nM"},
      {"measurement": "IC50", "setting": "Giardia intestinalis", "result": 218, "unit": "nM"},
      {"measurement": "Viability", "setting": "Trichinella spiralis [2]", "result": 2, "unit": "%"}
    ]},
    {"smiles": "Nc1nc2ccc(Cl)cc2[nH]1", "values": [
      {"measurement": "IC50", "setting": "Entamoeba histolytica", "result": 125, "unit": "nM"},
      {"measurement": "IC50", "setting": "Giardia intestinalis", "result": 30, "unit": "nM"},
      {"measurement": "Viability", "setting": "Trichinella spiralis [2]", "result": 17, "unit": "%"}
    ]}
  ]
}
